Consider 1 molecule from patent US6982142B2, “Methods for screening therapeutically effective agents” (John Wayne Cancer Institute, priority 1997, dated 2006).

Test [1] relates to MCF-7-AdrR cells. Kind of test: cells. Conditions: Homo sapiens, 72 h, read-out: growth inhibition.
Test [2] has as its system MCF-7 cells. As to the kind of experiment: cells. Format: cell-based. Conditions: Homo sapiens, MCF7, 96 h, read-out: EC50 (cytotoxicity). The procedure: Cytotoxicity Assay. The assay was performed as previously described (Lavie, 1997). […] Cultures were incubated at 37° C. for 24 hr before addition of drug. Drugs were added in FBS-free medium (0.1 ml), and cells were cultured at 37° C. for the indicated periods. Drug cytotoxicity was determined using the Promega 96 Aqueous cell proliferation assay kit. Absorbance at 490 nm was recorded using an ELISA reader (Molecular Devices, San Diego, Calif.).
Adriamycin was used to assess the influence of GCS transfection on cellular response to anthracyclines. After pretreatment with doxycycline for two days, MCF-7/GCS cells were incubated with increasing concentrations of adriamycin for four days. […] It was observed that MCF-7/GCS cells were resistant to ceramide toxicity as well. […] However, the EC50 in the TC group was nearly identical with that of MCF-7 cells, there being no statistical difference between the two groups (FIG. 14C).

Test [3] deals with MCF-7-AdrR cells. Conditions: 5-days.
A further test deals with MCF-7/GCS cells. As to the kind of experiment: Analysis of ceramide and glucosylceramide ([3H]palmitic acid, TLC) in GCS-transfected cells. Type of test: cell-based, human. The conditions noted are these: adriamycin. The protocol: (§1) Analysis of Ceramide and Glucosylceramide. Analyses were performed as previously described (Lavie, 1997). Cellular lipids were radiolabeled by incubating cells with [^3H]palmitic acid (2.5 μCi/ml culture medium) for 24 hr. After removal of medium, cells were rinsed twice with PBS (pH 7.4), and lipids were extracted (Lavie, 1997). After nitrogen evaporation of solvents, total lipids were resuspended in 100 μl of chloroform /methanol (1:1, v/v), and aliquots were applied to TLC plates. Ceramide was resolved using solvent system I, which contained chloroform/acetic acid (90:10, v/v). […] Commercial lipid standards were co-chromatographed. After development, lipids were visualized by iodine vapor staining, and areas of interest were scraped into 0.5 ml water. EcoLume counting fluid (4.5 ml) was added, the samples were mixed, and radioactivity was quantitated by liquid scintillation spectrometry.
(§2) To further define the mechanism of drug resistance in MCF-7/GCS cells, cells were challenged with adriamycin and the metabolism of ceramide was evaluated (FIGS. 16A-16B). […] After 24 and 48 hr with adriamycin, GC levels in the GCS-transfected cells increased 1.4- and 2.1-fold, respectively.

For test [4], the system named is MCF-7 wild-type cells. Kind of test: Ceramide and sphingomyelin formation ([3H]palmitic acid, TLC) in wild-type breast cancer cells. Format: cell-based, human. The conditions noted are these: doxorubicin 1.7 μM. The protocol: (§3) The effect of anthracyclines such as doxorubicin on ceramide formation is illustrated in FIG. 10A. Cells were seeded in 6-well plates (80,000 cells/well) in 2.0 ml medium containing 5% FBS. After 2 days of growth, cells were given doxorubicin (1.7 μM) and [^3H]palmitic acid (2.0 μCi/well) for 72 hr. Total cell lipids were extracted (Bligh and Dyer, 1959) and analyzed by applying 150,000 cpm (for ceramide analysis) and 50,000 cpm (for sphingomyelin analysis) from each sample to the origin of a Silica Gel G TLC plate and resolving [^3H]ceramide and [^3H]sphingomyelin as described in the Methods section. […] FIG. 10A illustrates that exposure of wild-type human breast cancer cells to doxorubicin (1.7 μM) caused, after 72 hours, a 6-fold increase in ceramide. […] Control and doxorubicin treated (1.7 μM) cells were grown in 10 cm culture dishes for 72 hr. Cells were harvested by trypsin-EDTA, centrifuged then incubated with digestion buffer (100 mM NaCl, 25 mM EDTA, 10 mM Tris-HCI, 0.5% SDS, 0.3 mg/ml Proteinase K, pH 8.0) at 45° C. for 18 hrs. DNA was extracted with phenol/chloroform/isoamyl alcohol (25:24:1, v/v/v) and precipitated in 1/3 volume 7.5 M ammonium acetate and 2 volume2 100% ethanol at −20° C. overnight. […] Re-extracted DNA (15 μg) was analyzed by electrophoresis on a 2% agarose gel in TAE buffer (40 mM Tris-acetate, 1.0 mM EDTA, pH 8.3). […]

Test [5] concerns MCF-7 cells. Kind of test: Analysis of ceramide and glucosylceramide ([3H]palmitic acid, TLC) in parental cells. Format: cell-based, human. The conditions noted are these: adriamycin. The procedure:
as §1, §2

Test [6] concerns MCF-7 wild-type cells. As to the kind of experiment: Apoptosis by oligonucleosomal DNA fragmentation (gel electrophoresis) in wild-type cells. Type of test: cell-based, human. The conditions noted are these: doxorubicin 1.7 μM, 72 hr. The protocol:
as §3

The test system of test [7] is MCF-7-AdrR cells. Kind of test: Cell radiolabeling and TLC/LSC analysis of ceramide, glucosylceramide and sphingomyelin in MDR breast cancer cells. The conditions noted are these: adriamycin 2.5, PSC 833 5.0 μM, tamoxifen 5.0 μM alone or combined, 24 h, [3H]palmitic acid. Type of test: cell-based, human. The protocol: Cells. Experiments were conducted using the human MDR breast cancer cell line, MCF-7 AdrR (adriamycin resistant) provided by Drs. Kenneth H. Cowan and Merrill E. Goldsmith, National Cancer Institute. Cells were grown in RPMI-1640 medium containing 10% FBS (fetal bovine serum) and antibiotics as previously described (Lavie, 1997) and cultures were maintained in a humidified 6.5% CO2 atmosphere incubator. Trypsin (0.05%) and EDTA (0.5 mM) were used for subculture. Plastic tissue cultureware, was from Costar (96-well plates) and Corning (6-well plates, 6-cm dishes, T-75 flasks). Limited experiments were conducted using the human MDR epidermoid carcinoma cell line, KBV-1, provided by Dr. Michael M. Gottesman, National Cancer Institute. Cells were maintained as described (Lavie, 1996). Vinblastine was eliminated from the culture medium during the experiments.
Cell Radiolabeling and Lipid/Glycolipid Analysis. To follow lipid metabolism, cells were grown in the presence of tritiated ceramide precursors, L-[^3H]serine (20 Ci/mmol) (American Radiolabeled Chemicals, Inc., St. Louis), and [9, 10-^3H]palmitic acid (50 Ci/mmol) (DuPont NEN). Labeling media were prepared by adding microliter amounts of tritiated compounds (supplied in ethanol or sterile water) to medium containing only 5% FBS. After radiolabeling, 0.1 ml aliquots of medium were removed and analyzed by LSC (Lavie, 1997), in order to determine cellular uptake of the tritiated compounds. Cell monolayers were then rinsed twice with cold phosphate-buffered saline. Ice cold methanol containing 2% acetic acid was added, and cells were scraped free of the substratum (plastic scraper) for lipid extraction using chloroform and water in 1-dram glass vials as described (Lavie, 1997; Lavie, 1996; Bligh and Dyer, 1959). After centrifugation, the resulting organic lower phase of the biphasic extraction was withdrawn, transferred to a glass vial, and evaporated to dryness under a stream of nitrogen.
Radioactivity in glucosylceramide was analyzed by TLC resolution of total lipids (Silica Gel G) using a solvent system containing chloroform/methanol/ammonium hydroxide (80:20:2, v/v/v). Migration of glucosylceramide on TLC was compared with that of commercial standard (glucocerebrosides, Gaucher's spleen, Matreya, Inc., Pleasant Gap, Pa.), and lipid spots, after iodine vapor visualization, were scraped for tritium quantitation by LSC (Lavie, 1997; Lavie, 1996). […] Ceramide and sphingomyelin commercial standards (brain-derived) were from Avanti Polar Lipids, Alabaster, Ala. After iodine visualization of lipids, areas of the chromatogram corresponding to ceramide and sphingomyelin were scraped into minivials containing 0.5 ml water followed by 4.5 ml EcoLume (ICN, Costa Mesa, Calif.), and samples were analyzed for tritium by liquid scintillation spectrometry. Alternative analysis of ceramide consisted of subjecting an aliquot of the total cell lipid extract to mild alkaline hydrolysis (0.1 N KOH in methanol, 1 h at 37° C.) followed by re-extraction (Lavie, 1997). […] The same can also be done without tritium by simply applying 100-200 μg total cell lipid to TLC plates and developing them in the appropriate solvent, then spraying them with 30% H2SO4, charring the plate in an oven at 180° C. for 20 min, and measuring lipid mass by densitometry.

Where a name gives a salt, the structure may show the parent alone.

Usually inhibition stands for the percentage by which the read-out fell short of the control. In general, EC50 refers to the concentration that produces a half-maximal response. As for `COc1cccc2c1C(=O)c1c(O)c3c(c(O)c1C2=O)C[C@@](O)(C(=O)CO)C[C@@H]3O[C@H]1C[C@H](N)[C@H](O)[C@H](C)O1` [adriamycin, doxorubicin hydrochloride], the inhibition at 2.5 µM in the test with MCF-7-AdrR cells [1] worked out at 23%. Moreover, the EC50 in the test with MCF-7 cells [2] worked out at 370 ± 10 nM. Moreover, in the test on MCF-7-AdrR cells [3] (adriamycin 0.2 μM alone), the cell survival was determined as 90%. The “cell survival, % of control” value in the test with MCF-7-AdrR cells [3] (adriamycin 0.1-1.0 μM) was 80-95 % of control. The GC level increase in the test with MCF-7/GCS cells (24 hr) is recorded as 1.4 fold; with MCF-7/GCS cells (48 hr), 2.1 fold. In addition, the ceramide level increase in the test on MCF-7/GCS cells (24 hr) is on record as 1.4 fold; with MCF-7/GCS cells (48 hr), 1.2 fold; in the test on MCF-7 cells [5] (24 hr) it was 3.4 fold; in the test on MCF-7 cells [5] (48 hr), 3 fold. In the test with MCF-7 wild-type cells [4] (72 hours), this molecule displayed a ceramide increase of 6 fold. Also, in the test with MCF-7 wild-type cells [4] (72 hr), the sphingomyelin production result is given as “increased only slightly”. The GC levels result in the test on MCF-7 cells [5] (24 and 48 hr) was “little impact”. Also, the “apoptosis (DNA laddering)” value with MCF-7 wild-type cells [6] is “gave rise to apoptosis”. Further, in the test on MCF-7-AdrR cells [7], the “ceramide level, increase over control” value was “not influenced”.
